Experimental data taken from patent EP0016703A1, “Lysine salt of (+/-) 3-amino-4-(1-pyrrolyl)-alpha-methylphenyl-acetic acid, process for its preparation and pharmaceutical composition containing it” (LIPHA, LYONNAISE INDUSTRIELLE PHARMACEUTIQUE, priority 1979, dated 1980).
Where two headings read alike, the source gives them in different places.

What was measured:
[1] = in vivo; conditions: in vivo
Description: (§1) A - La DL 50 a été déterminée chez la souris et le rat par les voies orale et I.V., selon MILLER et TAINTER (Proc. Soc. Exp. Biol. Medecine, 1944, 57, 261.

[2] = test system: oedème à la carragénine; assay: Anti-inflammatory activity, carrageenan oedema test (Winter et al.); assay type: in vivo; conditions: Administration P.O, dose that inhibits the oedema by 30 %; for ED30: Rattus norvegicus, po, read-out: Oedème à la carra-génine DE.30
Description: C - L'activité anti-inflammatoire a été démontrée par le test de l'oedème à la carragénine, selon WINTER et Col. (Proc. Exp. Biol. Med., 1962, 111, 544. On recherche .la protection que confère le traitement par le pro- duit administré P.O. au rat, vis à vis d'un oedème déclenché par injection sous la voûte plantaire, d'une suspension de carragénine. La dose efficace 30 est celle qui inhibe l'oedème de 30 %.

[3] = test system: érythème aux U.V.; assay: Protection against early inflammation, UV erythema method (Winder et al.); assay type: in vivo; conditions: cobaye albinos, Administration P.O, dose that moderates erythema intensity by 50 %; for ED50: Cavia porcellus, po, read-out: Erythème aux U.V. DE.50
Description: D - L'activité protectrice vis-à-vis de l'inflammation précoce a été mise en évidence sur le cobaye albinos selon la méthode de l'érythème aux U.V. (WINDER et Col., Arch. Int. Pharmacodyn. 1958, 116, 261). La dose efficace 50 est la dose qui.donnée P.O., modère de 50 % l'intensité de l'érythème induit par exposition à un rayonnement U.V. de la surface dorsale épilée des cobayes.

[4] = test system: contractions douloureuses; assay: Analgesic activity, acetic acid writhing test (Koster et al.); assay type: in vivo; conditions: souris, Administration P.O, dose that reduces the number of painful contractions by 50 %
Description: B - L'activité analgésique a été déterminée chez 1a souris par la méthode de KOSTER et Col. (Fed. Proc. 1959, 18, 412). On détermine la dose efficace 50, dose qui administrée P.O. diminue de 50 % le nombre des contractions douloureuses déclenchées par l'injection in- trapéritonéale d'une solution diluée d'acide acétique.

[5] = test system: rat; assay: in vivo
Description: as §1

[6] = test system: souris; assay: in vivo; conditions: P.O.
Description: as §1

[7] = Solubility in water; assay type: physicochemical

| Compound | LD50 ([1]; mouse, po, souris, P.O., read-out: DL. 50 souris P.O.) [mg/kg] | LD50 ([1]; rat, po, P.O., read-out: DL. 50 rat P.O.) [mg/kg] | ED30 [2] [mg/kg] | ED50 [3] [mg/kg] | Acide acétique DE.50 [4] [mg/kg] | DL. 50 rat P.O. [5] [mg/kg] | LD50 ([1]; mouse, iv, souris, I.V., read-out: DL. 50 souris I.V.) [mg/kg] | DL. 50 souris P.O. [6] [mg/kg] | Oedème à la carra-génine DE.30 ([2]; rat) [mg/kg] | Erythème aux U.V. DE.50 [3] | solubilité dans l'eau [7] | ED50 ([4]; Mus musculus, po, read-out: Acide acétique DE.50) [mg/kg] |
| --- | --- | --- | --- | --- | --- | --- | --- | --- | --- | --- | --- | --- |
| CC(C(=O)O)c1ccc(-n2cccc2)c(N)c1 (racemic) [Composé B, acide (±) amino-3 (pyrrolyl-1') -4α- méthyl phényl acétique] | 3000 | 392 ± 50 | 12 | 4.7 | 19 | – | – | – | – | – | – | – |
| CC(C(=O)O)c1ccc(-n2cccc2)c(N)c1 (racemic) [Composé C, sel de (±) lysine de l'acide (±) amino-3 (pyrrolyl-l')-4 α- méthyl phénylacétique] | – | – | – | – | 42 | 697 ± 103 | > 1600 | >3200 | 15 | 4,8 mg/kg | parfaite solubilité dans l'eau | – |
| CCCCC1C(=O)N(c2ccccc2)N(c2ccccc2)C1=O [Phénylbuta-zone, butyl-4 diphényl-1,2 pyrazolidine dione-3,5] | – | – | 35 | 3.7 | – | – | – | – | – | – | – | 93 |
